Data published in patent publication US20260167656A1, “PHOSPHORAMIDATE COMPOUNDS AND USES THEREOF” (ALLORION THERAPEUTICS INC, priority 2022, published 2026).

Columns and labels:
[1] = tested on: non-small cell lung cancer cell line H460; test: H460 proliferation assay in the presence of 3 uM ASP9521 (AKR1C3 specific inhibitor); type: cell-based, human; conditions: H460 cells, CellTiter-Glo, 72 hours, in the presence of 3 uM ASP9521 added 4 hours prior to compounds; read-out: CTG H460: Avg IC50 (nM) [Assay Condition: ASP9521]
Outline: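 AKR1C3 blocked with 3 uM ASP9521 given 4 h ahead of test compounds. H460 cells, plated 24 h earlier, were then treated for 72 h at 37 °C in 5% CO2. CellTiter-Glo luminescence gave viability.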

[2] = tested on: non-small cell lung cancer cell line H460; test: In vitro human cancer cell line cytotoxicity (proliferation) assay in H460, CellTiter-Glo, 72 hours; type: cell-based; conditions: DMSO condition (no AKR1C3 inhibitor), read-out: CTG H460: Avg IC50 (nM) [Assay Condition: DMSO]
Outline: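 IC50s in nM come from CellTiter-Glo viability read after 72 h of compound exposure. Compounds went in from 10 mM DMSO stocks onto H460 cells, which had been plated at 3×10^3 per well and grown 24 h beforehand at 37 °C, 5% CO2.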

[3] = Homo sapiens, NCI-H460, 72 h, H460 cells
[4] = Homo sapiens, NCI-H460, H460 cells

SMILES	IC50 [1] [nM]	IC50 [2, 3] [nM]	IC50 ([2]; H460 cells) [nM]	IC50 [2, 4] [nM]
O=[N+]([O-])c1cc2c(cc1Oc1ccc(-c3ccncc3)cc1)C(OP(=O)(N1CC1)N1CC1)CC2 (centres unmarked) [Example 198]	2230	< 10	–	–
O=[N+]([O-])c1ccc2c(c1Oc1ccc(-c3ccccn3)cc1)CC[C@@H]2OP(=O)(N1CC1)N1CC1 (single isomer, unassigned) [Example 40]	929	< 10	–	–
O=[N+]([O-])c1ccc2c(c1Oc1ccc(F)c(-c3ncc(F)cn3)c1)CCC2OP(=O)(N1CC1)N1CC1 (centres unmarked) [Example 329]	2440	–	< 10	–
Cc1nncn1-c1cccc(Oc2c([N+](=O)[O-])ccc3c2CC[C@@H]3OP(=O)(N2CC2)N2CC2)c1 [Example 434]	1140	< 10	–	–
CN1Cc2ccc(Oc3c([N+](=O)[O-])ccc4c3CCC4OP(=O)(N3CC3)N3CC3)cc2C1=O (centres unmarked) [Example 23]	75.9	< 10	–	–
CN1Cc2cc(Oc3cc4c(cc3[N+](=O)[O-])CCC4OP(=O)(N3CC3)N3CC3)ccc2C1=O (centres unmarked) [Example 154]	309	< 10	–	–
C[C@@H](OP(=O)(N1CC1)N1CC1)c1cc2cc(Oc3cccc(C4CC4)c3)c([N+](=O)[O-])cc2o1 [Example 561]	4230	–	10 to 50	–
Cn1cnc2cc(Oc3c([N+](=O)[O-])ccc4c3CCC4OP(=O)(N3CC3)N3CC3)ccc21 (centres unmarked) [Example 390]	1410	–	–	< 10
O=[N+]([O-])c1ccc2c(c1Oc1ccc3nccn3c1)CC[C@H]2OP(=O)(N1CC1)N1CC1 [Example 383]	4240	10 to 50	–	–
O=C(NC1CCC1)c1ccc(Oc2cc3c(cc2[N+](=O)[O-])CCC3OP(=O)(N2CC2)N2CC2)cc1 (centres unmarked) [Example 516]	778	–	< 10	–
O=[N+]([O-])c1ccc2c(c1Oc1cccc(-n3ccc(F)n3)c1)CC[C@@H]2OP(=O)(N1CC1)N1CC1 [Example 444]	192	< 10	–	–
C[C@H]1CN1P(=O)(OC(c1ccc([N+](=O)[O-])c(Oc2cccc(C(=O)N(C)C)c2)c1)C(F)(F)F)N1C[C@@H]1C (single isomer, unassigned) [Example 225]	9530	50 to 100	–	–
Cc1ccn(-c2cccc(Oc3c([N+](=O)[O-])ccc4c3CC[C@H]4OP(=O)(N3CC3)N3CC3)c2)n1 [Example 430]	4860	< 10	–	–
O=[N+]([O-])c1ccc2c(c1Oc1cccc(OC3CCCC3)c1)CCC2OP(=O)(N1CC1)N1CC1 (racemic) [Example 460]	1230	–	< 10	–
C[C@@H](OP(=O)(N1CC1)N1CC1)c1cc2cc(Oc3ccc4c(c3)CN(C)C4=O)c([N+](=O)[O-])cc2o1 [Example 564]	2690	–	10 to 50	–
O=[N+]([O-])c1ccc2c(c1Oc1ccc(F)c(OC3CCOCC3)c1)CC[C@H]2OP(=O)(N1CC1)N1CC1 [Example 496]	783	< 10	–	–
Cn1cc(-c2ccc(Oc3c([N+](=O)[O-])ccc4c3CCC4OP(=O)(N3CC3)N3CC3)cc2)cn1 (single isomer, unassigned) [Example 58]	1010	–	50 to 100	–
O=[N+]([O-])c1ccc2c(c1Oc1cccc(-n3ncnn3)c1)CC[C@H]2OP(=O)(N1CC1)N1CC1 [Example 437]	235	< 10	–	–
O=[N+]([O-])c1ccc2c(c1Oc1ccc(-c3ccc(F)cn3)c(F)c1)CCC2OP(=O)(N1CC1)N1CC1 (centres unmarked) [Example 92]	1420	–	< 10	–
O=C(c1cccc(Oc2c([N+](=O)[O-])ccc3c2CCC3OP(=O)(N2CC2)N2CC2)c1)N1CCC(F)(F)CC1 (centres unmarked) [Example 103]	811	< 10	–	–
CNC(=O)c1ccc(Oc2c([N+](=O)[O-])ccc3c2OCCC3OP(=O)(N2CC2)N2CC2)cc1 (centres unmarked) [Example 136]	913	–	50 to 100	–
Cc1nsc(-c2cc(Oc3c([N+](=O)[O-])ccc4c3CC[C@@H]4OP(=O)(N3CC3)N3CC3)ccc2F)n1 [Example 359]	1470	–	–	< 10
Cn1cnc2cc(Oc3c([N+](=O)[O-])ccc4c3CC[C@@H]4OP(=O)(N3CC3)N3CC3)ccc21 [Example 396]	2480	–	–	10 to 50
O=C1c2cc(Oc3cc4c(cc3[N+](=O)[O-])CCC4OP(=O)(N3CC3)N3CC3)ccc2CN1C1COC1 (centres unmarked) [Example 163]	1340	–	< 10	–
CN(C)C(=O)c1ccc(Oc2cc3c(cc2[N+](=O)[O-])CCC3OP(=O)(N2CC2)N2CC2)cc1 (single isomer, unassigned) [Example 140]	436	< 10	–	–
Cn1cc(Oc2c([N+](=O)[O-])ccc3c2CCC3OP(=O)(N2CC2)N2CC2)ccc1=O (centres unmarked) [Example 509]	844	–	< 10	–

SMILES	IC50 [1] [nM]	IC50 [2, 3] [nM]	IC50 ([2]; H460 cells) [nM]	IC50 [2, 4] [nM]
O=C(NC1CCC1)c1ccc(Oc2cc3c(cc2[N+](=O)[O-])CC[C@H]3OP(=O)(N2CC2)N2CC2)cc1 [Example 526]	661	–	< 10	–
Cn1cc(-c2cccc(Oc3c([N+](=O)[O-])ccc4c3CCC4OP(=O)(N3CC3)N3CC3)c2)cn1 (racemic) [Example 299]	744	–	< 10	–
O=C1CCCCN1c1cccc(Oc2c([N+](=O)[O-])ccc3c2CCC3OP(=O)(N2CC2)N2CC2)c1 (centres unmarked) [Example 107]	6500	10 to 50	–	–
CCc1nsc(-c2cccc(Oc3c([N+](=O)[O-])ccc4c3CC[C@@H]4OP(=O)(N3CC3)N3CC3)c2)n1 [Example 368]	3360	10 to 50	–	–
CC(C)Oc1cc(Oc2c([N+](=O)[O-])ccc3c2CCC3OP(=O)(N2CC2)N2CC2)ccc1F (centres unmarked) [Example 486]	967	–	< 10	–
Cn1ccc2cc(F)c(Oc3c([N+](=O)[O-])ccc4c3CCC4OP(=O)(N3CC3)N3CC3)cc21 (centres unmarked) [Example 402]	712	–	< 10	–
Cc1nc2cc(Oc3c([N+](=O)[O-])ccc4c3CCC4OP(=O)(N3CC3)N3CC3)ccc2n1C (centres unmarked) [Example 388]	1430	< 10	–	–
Cn1cc(Oc2cc(Oc3c([N+](=O)[O-])ccc4c3CC[C@@H]4OP(=O)(N3CC3)N3CC3)ccc2F)cn1 [Example 497]	1010	< 10	–	–
CSc1ccc(Oc2c([N+](=O)[O-])ccc3c2CCC3OP(=O)(N2CC2)N2CC2)cc1 (racemic) [Example 461]	547	–	< 10	–
O=[N+]([O-])c1cc2c(cc1Oc1ccc(-c3cccnc3)cc1)C(OP(=O)(N1CC1)N1CC1)CC2 (centres unmarked) [Example 187]	> 10000	10 to 50	–	–
CC(OP(=O)(N1C[C@H]1C)N1C[C@H]1C)c1ccc([N+](=O)[O-])c(Oc2ccc(-c3ccccc3)cc2)c1 (some centres unmarked) [Example 220]	5050	–	< 10	–
O=[N+]([O-])c1cc2oc(COP(=O)(N3CC3)N3CC3)cc2cc1Oc1cccc(C2CC2)c1 [Example 555]	1490	–	< 10	–
C[C@H](OP(=O)(N1CC1)N1CC1)c1cc2cc(Oc3ccc4c(c3)CN(C)C4=O)c([N+](=O)[O-])cc2o1 [Example 565]	5930	–	10 to 50	–
CN1CCc2ccc(Oc3cc4c(cc3[N+](=O)[O-])CCC4OP(=O)(N3CC3)N3CC3)cc2C1=O (centres unmarked) [Example 166]	976	10 to 50	–	–
O=[N+]([O-])c1cc2oc(COP(=O)(N3CC3)N3CC3)cc2cc1Oc1cccc(-c2ccccn2)c1 [Example 536]	651	< 10	–	–
O=[N+]([O-])c1ccc2c(c1Oc1cccc(OCC(F)(F)F)c1)CC[C@@H]2OP(=O)(N1CC1)N1CC1 [Example 474]	918	–	< 10	–
O=[N+]([O-])c1cc2c(cc1Oc1cccc(-c3ccccc3)c1)C(OP(=O)(N1CC1)N1CC1)CC2 (single isomer, unassigned) [Example 168]	755	< 10	–	–
CC(C)C1CN1P(=O)(OCc1ccc([N+](=O)[O-])c(Oc2cccc(C(=O)N(C)C)c2)c1)N1CC1C(C)C (centres unmarked) [Example 11]	2050	≥ 100	–	–
CC1(C)CN(c2cccc(Oc3c([N+](=O)[O-])ccc4c3CCC4OP(=O)(N3CC3)N3CC3)c2)C(=O)O1 (centres unmarked) [Example 417]	712	–	< 10	–
O=[N+]([O-])c1ccc2c(c1Oc1ccc3c(c1)OCO3)CC[C@@H]2OP(=O)(N1CC1)N1CC1 [Example 394]	388	< 10	–	–
Cn1c(=O)oc2ccc(Oc3c([N+](=O)[O-])ccc4c3CCC4OP(=O)(N3CC3)N3CC3)cc21 (single isomer, unassigned) [Example 65]	279	–	< 10	–
Cc1ncn(-c2cc(Oc3c([N+](=O)[O-])ccc4c3CC[C@@H]4OP(=O)(N3CC3)N3CC3)ccc2F)n1 [Example 440]	897	< 10	–	–
O=[N+]([O-])c1ccc2c(c1Oc1cncc(C3CC3)c1)CC[C@H]2OP(=O)(N1CC1)N1CC1 [Example 318]	1070	< 10	–	–
Cn1c(=O)oc2cc(Oc3cc4c(cc3[N+](=O)[O-])CCC4OP(=O)(N3CC3)N3CC3)ccc21 (centres unmarked) [Example 174]	244	< 10	–	–
CSc1cc(Oc2c([N+](=O)[O-])ccc3c2CCC3OP(=O)(N2CC2)N2CC2)ccc1F (centres unmarked) [Example 507]	952	–	< 10	–
O=[N+]([O-])c1cc2c(cc1Oc1ccc(-c3ccc(F)cc3)cc1)C(OP(=O)(N1CC1)N1CC1)CC2 (centres unmarked) [Example 144]	347	< 10	–	–
